Some test systems named below: OVCAR-3 ovarian; UACC-257 melanoma; SK-MEL-5 melanoma; HCT-116 colon; SF-268 CNS; LOX IMVI melanoma; UO-31 renal; IGROV1 ovarian; MCF7 breast; HT29 colon.
Experiment in all cases: inhibition of tumour cell growth, NCI panel, 48 h

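Values below derive from 48-hour exposures of cells grown in 96-well plates, with endpoints linearly interpolated between the two concentrations bracketing the appropriate inhibition level. GI50 = concentration required for 50% inhibition of growth. TGI is the concentration that stops growth completely.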

With `C=C(C)C(OC)C(O)CC1(C)CC(O)CC(C)(C2CCC3OC(C4(C)CCC(Br)C(C)(C)O4)CCC3(C)O2)O1` (stereo unspecified), the GI50 in the assay with OVCAR-3 ovarian is 22.8 µM; with UACC-257 melanoma it was 20.2 µM; in the assay with SK-MEL-5 melanoma it was 13.2 µM; in the assay with HCT-116 colon it was 20.6 µM; in the assay on SF-268 CNS, 18.9 µM; with LOX IMVI melanoma it was 26.1 µM. Also, the GI50 with UO-31 renal is 15.7 µM; in the assay with IGROV1 ovarian, 24 µM; in the assay with MCF7 breast, 19.9 µM; with HT29 colon it was 30.3 µM. Moreover, the TGI was 58.5 µM in the assay with OVCAR-3 ovarian; 43 µM in the assay on UACC-257 melanoma; 28.4 µM with SK-MEL-5 melanoma; 51.7 µM in the assay with HCT-116 colon; 40.3 µM with SF-268 CNS; greater than 58.9 µM in the assay with LOX IMVI melanoma. Besides, the TGI in the assay with UO-31 renal is 34.4 µM; in the assay with IGROV1 ovarian it was greater than 57.1 µM; in the assay on MCF7 breast, 42.3 µM; in the assay on HT29 colon, greater than 78.9 µM.
Consider `COc1cccc(-c2cc(-c3cccc(NS(C)(=O)=O)c3)nc(N)c2C#N)c1O`, for which the GI50 in the assay with UACC-257 melanoma is 0.471 µM; in the assay on SK-MEL-5 melanoma, 0.0747 µM; in the assay on HCT-116 colon, 0.0783 µM; in the assay on SF-268 CNS, 0.587 µM; in the assay with LOX IMVI melanoma, 0.136 µM; in the assay with UO-31 renal it was 0.208 µM. Besides, the GI50 in the assay with IGROV1 ovarian was 0.0577 µM; in the assay with MCF7 breast, 0.279 µM; in the assay with HT29 colon it was 0.0924 µM. For the same compound, the TGI in the assay with UACC-257 melanoma is greater than 100 µM; with SK-MEL-5 melanoma, 3.93 µM; with HCT-116 colon, greater than 100 µM; in the assay with SF-268 CNS, greater than 100 µM; with LOX IMVI melanoma it was greater than 100 µM; in the assay on UO-31 renal, greater than 52.7 µM. Further, the TGI in the assay on IGROV1 ovarian is greater than 86.3 µM; with MCF7 breast, greater than 100 µM.
For the compound `Cc1ccc(NC(=O)Nc2ccc(-c3cccnc3)cc2N2CCC(CO)CC2)cc1`, the GI50 with OVCAR-3 ovarian was 1.67 µM; in the assay on UACC-257 melanoma it was 2.14 µM; with SK-MEL-5 melanoma, 1.68 µM; in the assay with HCT-116 colon, 1.78 µM; in the assay with SF-268 CNS, 3.05 µM; in the assay with LOX IMVI melanoma, 3.6 µM. Also, the results for the GI50 in the assay with IGROV1 ovarian, in the assay with MCF7 breast and in the assay on HT29 colon were 8.44 µM, 1.59 µM and 1.47 µM, respectively. Besides, the TGI with OVCAR-3 ovarian was 5.23 µM; in the assay on UACC-257 melanoma, 9.61 µM; in the assay on SK-MEL-5 melanoma, 3.27 µM; in the assay on HCT-116 colon, 11.4 µM; in the assay on SF-268 CNS, greater than 100 µM; with LOX IMVI melanoma, greater than 100 µM. Also, the TGI was greater than 100 µM in the assay with IGROV1 ovarian, greater than 100 µM with MCF7 breast and 9.93 µM in the assay with HT29 colon.
Regarding `CN1CCCCC1CCN1c2ccccc2Sc2ccc(Cl)cc21` (stereo unspecified), the GI50 was 4.04 µM with OVCAR-3 ovarian; 2.45 µM in the assay on UACC-257 melanoma; 1.7 µM in the assay on SK-MEL-5 melanoma; 2.57 µM in the assay with HCT-116 colon; 2.99 µM in the assay on SF-268 CNS; 2.92 µM in the assay with UO-31 renal. In addition, the values for the GI50 with IGROV1 ovarian, in the assay with MCF7 breast and with HT29 colon were 3.24 µM, 2.68 µM and 3.17 µM, respectively. Moreover, the TGI is 14.6 µM in the assay with OVCAR-3 ovarian; 5.52 µM with UACC-257 melanoma; 3.25 µM in the assay on SK-MEL-5 melanoma; 6.72 µM in the assay on HCT-116 colon; 8.85 µM with SF-268 CNS; 12.7 µM in the assay with UO-31 renal. Moreover, the figures for the TGI in the assay on IGROV1 ovarian, in the assay with MCF7 breast and in the assay with HT29 colon were 10.6 µM, 9 µM and 11.1 µM, respectively.
As for `FC(F)(F)c1cccc(Nc2nc(-c3ccccc3)nc3ncccc23)c1`, the GI50 in the assay with OVCAR-3 ovarian was 5.2 µM; in the assay with SK-MEL-5 melanoma it was 4.04 µM; with HCT-116 colon it was 3.62 µM; in the assay with SF-268 CNS, 6.76 µM; in the assay with LOX IMVI melanoma, 4.48 µM; with UO-31 renal, 4.86 µM. Further, the values for the GI50 with IGROV1 ovarian, in the assay on MCF7 breast and in the assay with HT29 colon were 4.25 µM, 3.72 µM and 3.15 µM, respectively. Besides, the TGI is 28 µM in the assay on OVCAR-3 ovarian; 30.8 µM in the assay on SK-MEL-5 melanoma; 13.7 µM in the assay with HCT-116 colon; 44.3 µM with SF-268 CNS; 24.6 µM with LOX IMVI melanoma; 21.8 µM in the assay on UO-31 renal. Further, the values for the TGI in the assay on IGROV1 ovarian, in the assay with MCF7 breast and with HT29 colon were 16.8 µM, 14.7 µM and 12 µM, respectively.
On to `CC(=O)OC1OC([C@@H]2c3cccc(O)c3C(=O)c3c(O)cc(C)cc32)C(O)C(O)C1O` (stereo partly specified), for which the GI50 in the assay on OVCAR-3 ovarian is less than 0.018 µM; in the assay on UACC-257 melanoma it was 0.0951 µM; with SK-MEL-5 melanoma it was less than 0.0119 µM; with HCT-116 colon, 0.108 µM; in the assay with SF-268 CNS, 0.106 µM; in the assay with LOX IMVI melanoma it was less than 0.0141 µM. Besides, the results for the GI50 with UO-31 renal, in the assay with MCF7 breast and in the assay with HT29 colon were 0.0419 µM, 0.282 µM and 0.059 µM, respectively. Moreover, the TGI was determined as 0.0485 µM with OVCAR-3 ovarian; 1.33 µM with UACC-257 melanoma; 0.0294 µM in the assay on SK-MEL-5 melanoma; 1.2 µM in the assay on HCT-116 colon; 4.52 µM in the assay on SF-268 CNS; 0.0481 µM in the assay with LOX IMVI melanoma. Further, the results for the TGI with UO-31 renal, in the assay on MCF7 breast and in the assay with HT29 colon were 1.11 µM, 2.78 µM and greater than 100 µM, respectively.
Consider `COc1cc2cc(OC)c3cc4c(cc3c2c(OC)c1OC)OCO4`, for which the TGI in the assay on OVCAR-3 ovarian is greater than 100 µM; with UACC-257 melanoma, greater than 100 µM; with SK-MEL-5 melanoma it was greater than 57.2 µM; in the assay with HCT-116 colon it was greater than 84.4 µM; with SF-268 CNS it was greater than 100 µM; in the assay with LOX IMVI melanoma, 31 µM. Also, the TGI in the assay with UO-31 renal was greater than 67.8 µM; in the assay on IGROV1 ovarian, greater than 100 µM; in the assay with HT29 colon, 30.7 µM.
For `COC(=O)C1(C(C)C)CCc2c(OC)ccc(OC)c2C1=O` (stereo unspecified), the TGI with OVCAR-3 ovarian, with UACC-257 melanoma, with SK-MEL-5 melanoma, in the assay with HCT-116 colon, in the assay on SF-268 CNS and in the assay on LOX IMVI melanoma was greater than 100 µM throughout. The TGI in the assay with UO-31 renal, in the assay on IGROV1 ovarian and in the assay with HT29 colon was greater than 100 µM throughout.
In the case of `Cc1ccc(Cl)c2c(N=Nc3ccccc3[N+](=O)[O-])c(O)[nH]c12`, the TGI in the assay with OVCAR-3 ovarian, in the assay with UACC-257 melanoma, in the assay with HCT-116 colon, in the assay on SF-268 CNS, with LOX IMVI melanoma and in the assay on UO-31 renal was greater than 100 µM throughout. In addition, the TGI in the assay with IGROV1 ovarian, in the assay with MCF7 breast and with HT29 colon was greater than 100 µM in each case.
